Experimental data as given in paper PMC5736175, “Nicotinic alpha 7 receptor agonists EVP-6124 and BMS-933043, attenuate scopolamine-induced deficits in visuo-spatial paired associates learning” (PLoS ONE, 2017).
“And” between values parts separate entries of the source, which are not always exact repeats. Equal values may be shown once. “Also recorded” adds a separate entry of the source. Where a name gives a salt, the structure may show the parent alone.

Test system: scopolamine-treated cynomolgus monkeys
Experiment: Scopolamine-induced impairment of vsPAL task performance, treatment + scopolamine
Assay type: in vivo, cynomolgus monkeys (Macaca Fasicularis)
Experimental: Doses cited refer to the free base form of the compounds. […] All drugs were administered intramuscularly (i.m.) in a dosing volume of 0.1–0.2 ml/kg.
On days when compound testing occurred, approximately half the cohort received one dose and the remainder another dose of the same compound and therefore dose order was staggered between animals. With the exception of EVP-6124, all other compounds were tested in a single dose response study.
Cohen’s d values of >0.2, >0.5 and >0.8 are described using the conventions of small, medium, and large effects, respectively.

[1] = 0.3 mg/kg + scopolamine vs vehicle+scopolamine, eventual accuracy, 4-stimuli
[2] = Donepezil 0.03 mg/kg + Scopolamine, group MEAN of 6 animals
[3] = Donepezil 0.03 mg/kg + Scopolamine, individual animals
[4] = Donepezil 0.1 mg/kg + Scopolamine, group MEAN of 6 animals
[5] = Donepezil 0.1 mg/kg + Scopolamine, individual animals
[6] = Donepezil 0.3 mg/kg + Scopolamine, group MEAN (one animal without value)
[7] = Donepezil 0.3 mg/kg + Scopolamine, group MEAN of 6 animals
[8] = Donepezil 0.3 mg/kg + Scopolamine, individual animals
[9] = all doses of the study, for EVP-6124 study (1)
[10] = compound 0.03 mg/kg i.m. + Scopolamine
[11] = compound 0.10 mg/kg i.m. + Scopolamine
[12] = compound 0.30 mg/kg i.m. + Scopolamine

## COc1cc2c(cc1OC)C(=O)C(CC1CCN(Cc3ccccc3)CC1)C2 (centres unmarked) [Donepezil, Donepezil hydrochloride]
[1]
  Cohen's d: 1.2 and 1.199
  effect r: 0.514
0.3 mg/kg i.m., 4-stimuli condition
  effect on scopolamine-induced impairment of eventual accuracy: significantly ameliorated; also recorded: significantly reversed
0.3 mpk + scop, eventual correct, 4-stimuli condition
  mean (cohen's d calculations): 68.7
[2]
  % Completion: 79.4%
  Average Response Latency: 2339.5 ms
  Eventual Correct, 2 Stimuli: 100.0%
  Eventual Correct, 3 Stimuli: 86.7%
  Eventual Correct, 4 Stimuli: 42.1%
  Eventual Correct, Overall Mean % Correct: 76.2%
  Initial Correct, 3 Stimuli: 58.3%
  Initial Correct, 4 Stimuli: 16.7%
  Initial Correct, Overall Mean % Correct: 52.2%
  Initial correct, 2 Stimuli: 81.7%
[3]
  % Completion: 76.8% and 57.3% and 85.4% and 84.6% and 100.0% and 72.4%
  Average Response Latency: 2796.9 ms and 1893.7 ms and 2469.8 ms and 2357.9 ms and 2353.0 ms
  Eventual Correct, 2 Stimuli: 100.0%
  Eventual Correct, 3 Stimuli: 90.0% and 80.0% and 50.0% and 100.0%
  Eventual Correct, 4 Stimuli: 30.0% and 12.5% and 0.0% and 80.0% and 70.0% and 60.0%
  Eventual Correct, Overall Mean % Correct: 73.3% and 64.2% and 50.0% and 93.3% and 90.0% and 86.7%
  Initial Correct, 3 Stimuli: 50.0% and 70.0% and 40.0% and 60.0% and 90.0%
  Initial Correct, 4 Stimuli: 10.0% and 0.0% and 30.0%
  Initial Correct, Overall Mean % Correct: 50.0% and 56.7% and 36.7% and 46.7% and 73.3%
  Initial correct, 2 Stimuli: 90.0% and 100.0% and 70.0% and 60.0%
[4]
  % Completion: 80.6%
  Average Response Latency: 2361.5 ms
  Eventual Correct, 2 Stimuli: 98.3%
  Eventual Correct, 3 Stimuli: 90.0%
  Eventual Correct, 4 Stimuli: 50.0%
  Eventual Correct, Overall Mean % Correct: 79.4%
  Initial Correct, 3 Stimuli: 63.3%
  Initial Correct, 4 Stimuli: 30.0%
  Initial Correct, Overall Mean % Correct: 57.2%
  Initial correct, 2 Stimuli: 78.3%
[5]
  % Completion: 70.7% and 75.0% and 77.6% and 100.0% and 96.4% and 63.8%
  Average Response Latency: 2305.7 ms and 2751.0 ms and 1701.8 ms and 2272.3 ms and 2849.3 ms and 2289.1 ms
  Eventual Correct, 2 Stimuli: 90.0% and 100.0%
  Eventual Correct, 3 Stimuli: 60.0% and 90.0% and 100.0%
  Eventual Correct, 4 Stimuli: 0.0% and 90.0% and 50.0% and 60.0%
  Eventual Correct, Overall Mean % Correct: 50.0% and 93.3% and 80.0% and 83.3% and 86.7%
  Initial Correct, 3 Stimuli: 90.0% and 80.0% and 40.0% and 20.0% and 70.0%
  Initial Correct, 4 Stimuli: 50.0% and 30.0% and 0.0% and 40.0%
  Initial Correct, Overall Mean % Correct: 76.7% and 70.0% and 36.7% and 63.3% and 33.3%
  Initial correct, 2 Stimuli: 90.0% and 100.0% and 70.0% and 50.0%
[6]
  Eventual Correct, 4 Stimuli: 68.7%
  Initial Correct, 4 Stimuli: 28.2%
[7]
  Average Response Latency: 2371.0 ms
  Eventual Correct, 2 Stimuli: 98.3%
  Eventual Correct, 3 Stimuli: 85.0%
  Eventual Correct, Overall Mean % Correct: 84.9%
  Initial Correct, 3 Stimuli: 63.3%
  Initial Correct, Overall Mean % Correct: 58.4%
  Initial correct, 2 Stimuli: 80.0%
[8]
  % Completion: 41.3% and 69.1% and 98.4% and 98.6% and 98.3% and 61.0%
  Average Response Latency: 2379.3 ms and 1959.4 ms and 2184.7 ms and 2330.5 ms and 2840.5 ms and 2531.9 ms
  Eventual Correct, 2 Stimuli: 100.0% and 90.0%
  Eventual Correct, 3 Stimuli: 70.0% and 90.0% and 100.0%
  Eventual Correct, 4 Stimuli: 60.0% and 80.0% and 90.0% and 33.3%
  Eventual Correct, Overall Mean % Correct: 85.0% and 83.3% and 93.3% and 90.0% and 86.7% and 71.1%
  Initial Correct, 3 Stimuli: 50.0% and 80.0% and 70.0% and 60.0%
  Initial Correct, 4 Stimuli: 20.0% and 50.0% and 40.0% and 11.1%
  Initial Correct, Overall Mean % Correct: 50.0% and 66.7% and 53.3% and 63.3% and 50.4%
  Initial correct, 2 Stimuli: 50.0% and 100.0% and 80.0% and 90.0%
All doses of the study
  Holm-Sidak Post-Hoc, Treatment+Scopolamine differs from Vehicle+Scopolamine: percent correct on initial attempt, 3-stimuli: n.s.
[9]
  Holm-Sidak Post-Hoc, Treatment+Scopolamine differs from Vehicle+Scopolamine: Choice Response Latency: n.s.
  Holm-Sidak Post-Hoc, Treatment+Scopolamine differs from Vehicle+Scopolamine: Percent Task Completed: n.s.
  Holm-Sidak Post-Hoc, Treatment+Scopolamine differs from Vehicle+Scopolamine: percent correct on initial attempt, 2-stimuli: n.s.
  Holm-Sidak Post-Hoc, Treatment+Scopolamine differs from Vehicle+Scopolamine: percent correct on initial attempt, 4 stimuli: n.s.
[10]
  Percent Correct on Initial Attempt (SEM), 2 stimuli: 81.7% (7.0%)
  Percent Correct on Initial Attempt (SEM), 3 stimuli: 58.3% (7.9%)
  Percent Correct on Initial Attempt (SEM), 4 stimuli: 16.7% (6.1%)
[11]
  Percent Correct on Initial Attempt (SEM), 2 stimuli: 78.3% (7.5%)
  Percent Correct on Initial Attempt (SEM), 3 stimuli: 63.3% (11.2%)
  Percent Correct on Initial Attempt (SEM), 4 stimuli: 30.0% (6.8%)
[12]
  Percent Correct on Initial Attempt (SEM), 2 stimuli: 80.0% (6.8%)
  Percent Correct on Initial Attempt (SEM), 3 stimuli: 63.3% (4.2%)
  Percent Correct on Initial Attempt (SEM), 4 stimuli: 28.2% (7.2%)
